Experimental data from patent US20210137853A1, “METHODS OF TREATING EPILEPTIC PATIENTS WITH FENFLURAMINE” (Zogenix International Limited, priority 2019, published 2021).
Where “and” joins values, the source holds several entries; their conditions need not be identical. Identical values can stand only once. Like-named read-outs stand apart in the source and are kept apart here.

Assays:
[1] = tested on: Maximal Electroshock (MES) model of acute generalized tonic clonic seizures; test: MES test of fenfluramine (FFA) alone, dose and time range; format: in vivo, mouse
Excerpt: Results are depicted in Table 6 below.

5-HT1A = target: T1, 5-HT1A (Homo sapiens, UniProt P08908); conditions: cited from earlier work; for Ki: values from ChemBL, PDSP or DrugBank.ca and literature
T1 sequence (P08908 1-422): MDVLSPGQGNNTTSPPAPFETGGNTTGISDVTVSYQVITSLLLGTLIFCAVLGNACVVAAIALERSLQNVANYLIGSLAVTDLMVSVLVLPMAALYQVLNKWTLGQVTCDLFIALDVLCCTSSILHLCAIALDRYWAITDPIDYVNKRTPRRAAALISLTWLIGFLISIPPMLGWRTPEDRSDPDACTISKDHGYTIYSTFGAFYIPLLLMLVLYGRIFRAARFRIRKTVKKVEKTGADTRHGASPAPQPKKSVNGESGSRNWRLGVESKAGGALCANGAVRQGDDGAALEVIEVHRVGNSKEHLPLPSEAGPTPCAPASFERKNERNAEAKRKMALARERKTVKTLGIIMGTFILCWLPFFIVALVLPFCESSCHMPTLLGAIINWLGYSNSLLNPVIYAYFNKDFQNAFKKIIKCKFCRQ

5-HT1D = 5-HT1D (Homo sapiens, UniProt P28221); conditions: Table 4, cited from earlier work; for Ki: values from ChemBL, PDSP or DrugBank.ca and literature
[2] = tested on: Maximal Electroshock (MES) model of acute generalized tonic clonic seizures; test: MES test of fenfluramine in combination with serotonergic inhibitors; conditions: for Activity in MES model in presence of FFA (animals protected): Table 7, compound combined with 3 mg/kg FFA; for Impaired (I/F) / Protected (N/F): compound IP at Table 5 dose and time of test, with fenfluramine 3 mg/kg IP 4 hr pre-test; for effect on FFA anti-seizure activity in MES model (in words): summary of Table 7
Protocol: Specifically, the present example describes characterization of anticonvulsant effects of fenfluramine when administered in combination with various other compounds using a murine model of seizures: a Maximal Electroshock (IVIES) model. Maximal Electroshock (IVIES) is a model of acute generalized tonic clonic seizures. Induction of seizures is caused by 60 Hz 0.2 second alternating 50 mA current in the mouse. Tonic hindlimb extensions are measured to assess seizures or seizure protection.
So, for example, a compound with a 1 hour time of peak activity would be administered 3 hours after FEN administration in the study design.

5-HT1B = 5-HT1B (Homo sapiens, UniProt P28222); conditions: cited from earlier work
5-HT2C = target: T2, 5-HT2C (Homo sapiens, UniProt P28335); conditions: Table 4; values from ChemBL, PDSP or DrugBank.ca and literature; cited from earlier work
T2 sequence (P28335 33-458): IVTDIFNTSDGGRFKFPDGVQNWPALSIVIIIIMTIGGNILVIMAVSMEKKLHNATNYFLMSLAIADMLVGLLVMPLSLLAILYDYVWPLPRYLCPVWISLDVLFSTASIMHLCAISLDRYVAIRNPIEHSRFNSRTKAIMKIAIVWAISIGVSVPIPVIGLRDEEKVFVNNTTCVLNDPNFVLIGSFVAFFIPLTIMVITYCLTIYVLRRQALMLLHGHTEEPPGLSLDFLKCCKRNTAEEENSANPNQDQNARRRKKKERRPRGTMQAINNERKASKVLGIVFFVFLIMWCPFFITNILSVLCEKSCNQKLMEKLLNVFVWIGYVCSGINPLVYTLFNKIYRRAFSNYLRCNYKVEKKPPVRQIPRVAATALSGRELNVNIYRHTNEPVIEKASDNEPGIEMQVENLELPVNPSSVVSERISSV

Dravet syndrome seizures = conditions: supplemented with clobazam and valproate; cited from earlier work
5-HT2A = 5-HT2A (Homo sapiens, UniProt P28223); conditions: Table 4; values from ChemBL, PDSP or DrugBank.ca and literature; cited from earlier work
MES test = conditions: cited from earlier work
[3] = fenfluramine 3 mg/kg IP plus vehicle (VEH) only
[4] = 50% inhibition of specific binding, Moser et al. 1990

Sequence of 5-HT1D (P28221 whole entry, species assumed): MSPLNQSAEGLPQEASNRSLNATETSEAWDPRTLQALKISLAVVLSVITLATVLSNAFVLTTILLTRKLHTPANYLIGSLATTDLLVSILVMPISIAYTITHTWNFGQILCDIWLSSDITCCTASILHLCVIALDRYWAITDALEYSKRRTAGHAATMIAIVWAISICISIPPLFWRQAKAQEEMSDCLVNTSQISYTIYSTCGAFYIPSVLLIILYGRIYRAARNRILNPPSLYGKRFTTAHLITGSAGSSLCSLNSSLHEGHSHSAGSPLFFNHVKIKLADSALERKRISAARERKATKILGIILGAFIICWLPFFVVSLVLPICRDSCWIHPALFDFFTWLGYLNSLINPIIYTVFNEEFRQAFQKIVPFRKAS
Sequence of 5-HT1B (P28222 whole entry, species assumed): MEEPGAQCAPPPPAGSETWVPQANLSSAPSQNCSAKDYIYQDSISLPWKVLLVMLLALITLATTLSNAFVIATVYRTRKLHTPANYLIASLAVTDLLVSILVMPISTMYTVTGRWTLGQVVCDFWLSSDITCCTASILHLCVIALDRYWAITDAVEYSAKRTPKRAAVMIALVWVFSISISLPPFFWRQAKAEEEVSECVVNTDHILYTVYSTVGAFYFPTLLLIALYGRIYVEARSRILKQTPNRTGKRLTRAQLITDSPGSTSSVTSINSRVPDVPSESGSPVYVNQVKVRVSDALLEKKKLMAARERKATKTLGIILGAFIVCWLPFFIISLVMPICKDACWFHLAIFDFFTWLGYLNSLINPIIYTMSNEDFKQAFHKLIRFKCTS
Sequence of 5-HT2A (P28223 whole entry): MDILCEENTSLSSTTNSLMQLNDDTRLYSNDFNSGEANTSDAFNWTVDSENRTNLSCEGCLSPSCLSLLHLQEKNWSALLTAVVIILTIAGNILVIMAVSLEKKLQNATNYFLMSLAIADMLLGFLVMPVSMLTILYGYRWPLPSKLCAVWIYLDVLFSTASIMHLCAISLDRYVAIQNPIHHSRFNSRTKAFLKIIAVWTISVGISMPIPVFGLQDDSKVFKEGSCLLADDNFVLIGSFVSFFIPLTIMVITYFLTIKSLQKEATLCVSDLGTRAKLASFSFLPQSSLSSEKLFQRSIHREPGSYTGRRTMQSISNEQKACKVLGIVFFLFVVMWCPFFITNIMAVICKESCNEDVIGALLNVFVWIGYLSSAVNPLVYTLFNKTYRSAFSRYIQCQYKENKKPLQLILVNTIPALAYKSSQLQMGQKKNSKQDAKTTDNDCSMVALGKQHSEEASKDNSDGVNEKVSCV

Row | Structure (SMILES) | Activity in MES model in presence of FFA (animals protected) [2] | Impaired (I/F) [2] | Protected (N/F) [2] | effect on FFA anti-seizure activity in MES model (in words) [2] | Ki (5-HT1D) [nM] | also measured
1 | CCNC(C)Cc1cccc(C(F)(F)F)c1 (racemic) [Fenfluramine, (RS)—N-ethyl-1-[3-(trifluoromethyl)phenyl]propan-2-amine] | – | – | – | – | – | Activity in MES model: FFA protected ([1]; 2.5 mg/kg IP, 4 hr pre-MES, SOW #1 MES Quantification): FFA protected = 3/4; animals protected in the MES assay ([1]; 3 mg/kg FFA): 50-60%; Activity in MES model: FFA protected ([1]; 3 mg/kg IP, 2 hr pre-MES, SOW #1 MES Identification): FFA protected = 3/4; Activity in MES model: FFA protected ([1]; 3 mg/kg, 4 hr pre-MES, SOW #2 (-) control): FFA protected = 4/8; Activity in MES model: FFA protected ([1]; 3 mg/kg, 4 hr pre-MES, SOW #3 (-) control): FFA protected = 5/8; Activity in MES model: FFA protected ([1]; 5 mg/kg IP, 4 hr pre-MES, SOW #1 MES Quantification): FFA protected = 6/8; protection in the MES model ([1]; 10 mg/kg FFA): 100%; Activity in MES model: FFA protected ([1]; 10 mg/kg IP, 2 hr pre-MES, SOW #1 MES Time Course): FFA protected = 3/4; Activity in MES model: FFA protected ([1]; 10 mg/kg IP, 4 hr pre-MES, SOW #1 MES Quantification): FFA protected = 8/8; Activity in MES model: FFA protected ([1]; 10 mg/kg IP, 4 hr pre-MES, SOW #1 MES Time Course): FFA protected = 4/4; Impaired (I/F) [1, 3]: 0/8; Protected (N/F) [1, 3]: 4/8 and 5/8
2 | OC(CN1CCN(c2cccc(Cl)c2)CC1)C(c1ccccc1)c1ccccc1 (stereo not drawn) [BRL 15572] | FFA reduced protection = 1/8 | 0/8 | 1/8 | appear to block FFA anti-seizure activity | – | pKi 5-HT1A (5-HT1A; Table 4): 7.7; pKi 5-HT1D (5-HT1D): 7.9
3 | O=C1CC2(CCCC2)CC(=O)N1CCNCC1COc2ccccc2O1 (stereo not drawn) [Binospirone] | FFA protected = 3/8 | 0/8 | 3/8 | – | – | pIC50 5-HT1B (5-HT1B; [4]): 4.5; pIC50 5-HT1A (5-HT1A; [4]): 8.6
4 | NC(=O)N1c2ccccc2C=Cc2ccccc21 [Carbamazepine] | Protected = 8/8 | 0/8 | 8/8 | no interference was observed | – | –
5 | CN(C)CCCN1c2ccccc2Sc2ccc(Cl)cc21 [Chlorpromazine] | FFA protected = 5/8 | – | 5/8 | do not block FFA anti-seizure activity | 452 | –
6 | CN1CCN(C2=Nc3cc(Cl)ccc3Nc3ccccc32)CC1 [Clozapine] | FFA reduced protection = 1/8 | – | – | appear to block FFA anti-seizure activity | – | –
7 | CN1CCN(C2=Nc3ccccc3Oc3ccc(Cl)cc32)CC1 [Loxapine] | – | – | – | – | 3470 | Ki (5-HT1B; Table 4, values from ChemBL, PDSP or DrugBank.ca and literature): 388 nM; Ki (5-HT1A; Table 4): 2460 nM; Ki (5-HT2C): 9.5 to 21 nM
8 | Clc1ccc2c(c1)N=C(N1CCNCC1)c1ccccc1N2 [N-desmethyl-clozapine, N-desmethylclozapine] | FFA reduced protection = 1/8 | 0/8 | 1/8 | appear to block FFA anti-seizure activity | 130 | Ki (5-HT1A; Table 4): 160 nM; Ki (5-HT2C): 4.8 nM
9 | O=c1[nH]c2ccccc2n1C1CCN(CCCC(c2ccc(F)cc2)c2ccc(F)cc2)CC1 [Pimozide] | FFA protected = 3/8 | – | 3/8 | do not block FFA anti-seizure activity | 3100 | –
10 | CC(C)NCC(O)COc1cccc2[nH]ccc12 (stereo not drawn) [Pindolol] | FFA protected = 5/8 | – | 5/8 | do not block FFA anti-seizure activity | 4900 | –
11 | CC(C)(C)C(O)/C=C/c1ccc2c(c1)OCO2 (stereo not drawn) [Stiripentol, stiripentol] | – | – | – | – | – | reduction of overall seizure rate (Dravet syndrome seizures): 70%
12 | CN1CC2c3ccccc3Oc3ccc(Cl)cc3C2C1 (stereo not drawn) [asenapine] | FFA reduced protection = 2/8 | 0/8 | 2/8 | – | 10.2 | Ki (5-HT1A; Table 4): 15 nM; Ki (5-HT2C): 0.27 nM; Ki (5-HT2A): 0.77 nM
13 | CN(C)CCCN1c2ccccc2CCc2ccc(Cl)cc21 [clomipramine] | FFA protected = 7/8 | 0/8 | 7/8 | do not block FFA anti-seizure activity | – | Ki (5-HT2C): 64.6 nM
14 | CN(C)CCC=C1c2ccccc2COc2ccccc21 [doxepin] | FFA protected = 7/8 | – | 7/8 | do not block FFA anti-seizure activity | – | ED50 in MES test (MES test; 0.25 hr post-administration): 8.2 mg/kg; ED50 in MES test (MES test; IP, at TPE of 5 min): 6.6 mg
15 | CN1CCN2c3ccccc3Cc3ccccc3C2C1 (stereo not drawn) [mianserin] | FFA reduced protection = 2/8 | 0/8 | 2/8 | – | – | –
16 | OCCN1CCN(CCCN2c3ccccc3Sc3ccc(Cl)cc32)CC1 [perphenazine] | FFA reduced protection = 2/8 | – | 2/8 | – | – | –
